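Tested at 5 concentrations; 48 h exposure; 96-well plates; endpoints linearly interpolated, else capped at highest concentration. Here, GI50 denotes the concentration required for 50% inhibition of growth.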 Activity calls are given as the source filed them. Cut-off read from the data, not from the text of the source: active = GI50 up to about 1.1 µM and inactive = higher.
Columns and labels:
Assay in all cases: NCI tumour cell line growth inhibition, 48 h
786-0 = tested on: 786-0
A498 = tested on: A498
A549 = tested on: A549
ACHN = tested on: ACHN
CAKI-1 = tested on: CAKI-1
CCRF-CEM = tested on: CCRF-CEM
COLO 205 = tested on: COLO 205
DLD-1 = tested on: DLD-1
DMS-114 = tested on: DMS-114
DMS-273 = tested on: DMS-273
EKVX = tested on: EKVX
HCC 2998 = tested on: HCC 2998
HCT-116 = tested on: HCT-116
HCT-15 = tested on: HCT-15
HL-60 = tested on: HL-60
HOP-18 = tested on: HOP-18
HOP-62 = tested on: HOP-62
HOP-92 = tested on: HOP-92
HT-29 = tested on: HT-29
IGROV-1 = tested on: IGROV-1
K562 = tested on: K562
KM-20L2 = tested on: KM-20L2
KM12 = tested on: KM12
LOX IMVI = tested on: LOX IMVI
LXFL 529 = tested on: LXFL 529
M14 = tested on: M14
M19-MEL = tested on: M19-MEL
MOLT-4 = tested on: MOLT-4
Malme-3M = tested on: Malme-3M
NCI-H226 = tested on: NCI-H226
NCI-H23 = tested on: NCI-H23
NCI-H460 = tested on: NCI-H460
NCI-H522 = tested on: NCI-H522
OVCAR-3 = tested on: OVCAR-3
OVCAR-4 = tested on: OVCAR-4
OVCAR-5 = tested on: OVCAR-5
OVCAR-8 = tested on: OVCAR-8
RPMI-8226 = tested on: RPMI-8226
RXF 393 = tested on: RXF 393
RXF 631 = tested on: RXF 631
SF-268 = tested on: SF-268
SF-295 = tested on: SF-295
SF-539 = tested on: SF-539
SK-MEL-28 = tested on: SK-MEL-28
SK-MEL-2 = tested on: SK-MEL-2
SK-MEL-5 = tested on: SK-MEL-5
SK-OV-3 = tested on: SK-OV-3
SN12C = tested on: SN12C
SNB-19 = tested on: SNB-19
SNB-75 = tested on: SNB-75
SR = tested on: SR
SW-620 = tested on: SW-620
TK-10 = tested on: TK-10
U-251 = tested on: U-251
UACC-257 = tested on: UACC-257
UACC-62 = tested on: UACC-62
UO-31 = tested on: UO-31
XF498 = tested on: XF498

For `CCOC(=O)C1=C(Nc2cccc3ccccc23)OC/C1=N\NC(=O)c1ccccc1O`, the GI50 (786-0) was 21 µM (inactive), the GI50 (A498) was 19.5 µM (inactive) and the GI50 (A549) was 16.4 µM (inactive). The GI50 (ACHN) was 8.63 µM (inactive), the GI50 (CAKI-1) was 7.28 µM (inactive) and the GI50 (CCRF-CEM) was 4.86 µM (inactive). The GI50 (COLO 205) was 15.5 µM (inactive), the GI50 (DLD-1) was 17.6 µM (inactive) and the GI50 (DMS-114) was 11.4 µM (inactive). The GI50 (DMS-273) was 9.59 µM (inactive), the GI50 (EKVX) was 21.3 µM (inactive) and the GI50 (HCC 2998) was 54.1 µM (inactive). For the same compound, the GI50 (HCT-116) was 19.1 µM (inactive), the GI50 (HCT-15) was 14.7 µM and the GI50 (HL-60) was 6.93 µM (inactive). For the same compound, the GI50 (HOP-18) was 11.1 µM (inactive), the GI50 (HOP-62) was 13.5 µM (inactive) and the GI50 (HOP-92) was 11.1 µM (inactive). For the same compound, the GI50 (HT-29) was 29.7 µM (inactive), the GI50 (IGROV-1) was 4.26 µM (inactive) and the GI50 (K562) was 10.1 µM (inactive). The GI50 (KM-20L2) was 29 µM (inactive), the GI50 (KM12) was 25.3 µM (inactive) and the GI50 (LOX IMVI) was 14.3 µM (inactive). For the same compound, the GI50 (LXFL 529) was 20.3 µM (inactive), the GI50 (M14) was 21.9 µM (inactive) and the GI50 (M19-MEL) was 19.1 µM (inactive). For the same compound, the GI50 (MOLT-4) was 12.6 µM (inactive), the GI50 (Malme-3M) was 28.9 µM (inactive) and the GI50 (NCI-H226) was 22.3 µM (inactive). For the same compound, the GI50 (NCI-H23) was 4.09 µM (inactive), the GI50 (NCI-H460) was 14.8 µM (inactive) and the GI50 (NCI-H522) was 7.64 µM (inactive). For the same compound, the GI50 (OVCAR-3) was 10.6 µM (inactive), the GI50 (OVCAR-4) was 9.68 µM (inactive) and the GI50 (OVCAR-5) was 20.6 µM (inactive). For the same compound, the GI50 (OVCAR-8) was 17 µM (inactive), the GI50 (RPMI-8226) was 16.7 µM (inactive) and the GI50 (RXF 393) was 3.96 µM (inactive). The GI50 (RXF 631) was 21.2 µM (inactive), the GI50 (SF-268) was 13.4 µM (inactive) and the GI50 (SF-295) was 22.8 µM (inactive). For the same compound, the GI50 (SF-539) was 10.6 µM (inactive), the GI50 (SK-MEL-28) was 22.3 µM (inactive) and the GI50 (SK-MEL-2) was 29.8 µM (inactive). For the same compound, the GI50 (SK-MEL-5) was 12.9 µM (inactive), the GI50 (SK-OV-3) was 26 µM (inactive) and the GI50 (SN12C) was 23.4 µM (inactive). The GI50 (SNB-19) was 22.1 µM (inactive), the GI50 (SNB-75) was 3.39 µM (inactive) and the GI50 (SR) was 7.55 µM (inactive). The GI50 (SW-620) was 18.8 µM (inactive), the GI50 (TK-10) was 21.1 µM (inactive) and the GI50 (U-251) was 23.7 µM (inactive). The GI50 (UACC-257) was 22.9 µM (inactive), the GI50 (UACC-62) was 6.53 µM (inactive) and the GI50 (UO-31) was 4.88 µM (inactive). The GI50 (XF498) was 8.04 µM (inactive).
